Values quoted from earlier work in patent publication US12686008B2, “Microfluidic device having specifically designed detection chambers” (Bifrost Biosystems Inc., priority 2020, dated 2026).
Where no end group is shown, it is not given here.

Conditions: literature values, refs [18, 19]; test organism not given

In the case of LL-37, the MIC is given as 1.5 µM.
In the case of VDKPPYLPRPRPPRRIYNR-NH2 [Oncocin], the MIC is listed as 0.42 µM.
